{"source": "patent US20230117034A1", "about": "“PYRAZOLOTRIAZINES” (Bayer Aktiengesellschaft, priority 2019, published 2023)", "key": {"[1]": {"tested_on": "BRCA1 mRNA expression in MDA-MB-231 cells", "experiment": "qRT-PCR assay: BRCA1 mRNA expression in MDA-MB-231", "assay_type": "cell-based, human", "conditions": "Homo sapiens, MDA-MB-231, Inhibition of BRCA1 mRNA expression in MDA-MB-231 cells; median; read-out: RTqPCR-MDA-MB-231, IC50, BRCA1 (median)", "experimental": "3. qRT-PCR Assay: BRCA, ATR, MCL1 in MDA-MB-231, CAL-120\nTissue cultured human MDA-MB-231 human breast cancer cells were plated in 500 microL per well at 200,000 cells/well in a 24 well microtiter plate. After 24 h, the cells were exposed continuously for 24 h to test substances (substances were added with Tecan HP 0300 Dispenser). RNA was prepared using Qiagen RNeasy MiniKit (#74106), RNA was quantified using a NanoDrop Equipment, and 600 nano gamms of RNA was coverted to cDNA using a SuperScript VILO kit (Thermofisher #11755050) followed by qPCR amplification. BRCA1 and ATR gene expression was measured by RT-qPCR and normalised to GAPDH housekeeping gene expression. qPCR primer sets have been purchased from Thermo Fisher Scientific/Applied Biosystems: BRCA1, #Hs 01556193; ATR, #Hs 00992123; GAPDH, #Hs 03929097."}, "[2]": {"molecular_target": "T1, CYCLIN K (nuclear staining in CAL-120 cells) (Homo sapiens, UniProt O75909)", "T1 construct": "endogenous in cells; host or cells: CAL-120 human breast cancer cells (DSMZ ACC 459)", "T1 sequence (O75909 whole entry)": "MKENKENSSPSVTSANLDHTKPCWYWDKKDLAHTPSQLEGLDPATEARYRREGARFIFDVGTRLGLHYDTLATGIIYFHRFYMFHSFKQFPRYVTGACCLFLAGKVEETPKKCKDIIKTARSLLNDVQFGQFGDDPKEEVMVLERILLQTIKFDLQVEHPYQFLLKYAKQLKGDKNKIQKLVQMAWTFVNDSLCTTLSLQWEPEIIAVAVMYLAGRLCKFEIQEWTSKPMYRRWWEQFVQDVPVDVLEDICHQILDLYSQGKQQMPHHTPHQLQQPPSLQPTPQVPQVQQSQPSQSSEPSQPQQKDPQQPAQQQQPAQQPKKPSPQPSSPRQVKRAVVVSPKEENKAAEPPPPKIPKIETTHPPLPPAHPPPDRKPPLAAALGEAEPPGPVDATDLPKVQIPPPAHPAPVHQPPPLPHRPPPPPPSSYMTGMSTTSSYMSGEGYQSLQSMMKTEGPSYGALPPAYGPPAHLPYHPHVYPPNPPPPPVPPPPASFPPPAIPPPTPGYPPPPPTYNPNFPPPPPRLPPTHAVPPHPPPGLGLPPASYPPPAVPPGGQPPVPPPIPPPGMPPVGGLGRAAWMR", "T1 sequence (Q9NYV4 whole entry partner)": "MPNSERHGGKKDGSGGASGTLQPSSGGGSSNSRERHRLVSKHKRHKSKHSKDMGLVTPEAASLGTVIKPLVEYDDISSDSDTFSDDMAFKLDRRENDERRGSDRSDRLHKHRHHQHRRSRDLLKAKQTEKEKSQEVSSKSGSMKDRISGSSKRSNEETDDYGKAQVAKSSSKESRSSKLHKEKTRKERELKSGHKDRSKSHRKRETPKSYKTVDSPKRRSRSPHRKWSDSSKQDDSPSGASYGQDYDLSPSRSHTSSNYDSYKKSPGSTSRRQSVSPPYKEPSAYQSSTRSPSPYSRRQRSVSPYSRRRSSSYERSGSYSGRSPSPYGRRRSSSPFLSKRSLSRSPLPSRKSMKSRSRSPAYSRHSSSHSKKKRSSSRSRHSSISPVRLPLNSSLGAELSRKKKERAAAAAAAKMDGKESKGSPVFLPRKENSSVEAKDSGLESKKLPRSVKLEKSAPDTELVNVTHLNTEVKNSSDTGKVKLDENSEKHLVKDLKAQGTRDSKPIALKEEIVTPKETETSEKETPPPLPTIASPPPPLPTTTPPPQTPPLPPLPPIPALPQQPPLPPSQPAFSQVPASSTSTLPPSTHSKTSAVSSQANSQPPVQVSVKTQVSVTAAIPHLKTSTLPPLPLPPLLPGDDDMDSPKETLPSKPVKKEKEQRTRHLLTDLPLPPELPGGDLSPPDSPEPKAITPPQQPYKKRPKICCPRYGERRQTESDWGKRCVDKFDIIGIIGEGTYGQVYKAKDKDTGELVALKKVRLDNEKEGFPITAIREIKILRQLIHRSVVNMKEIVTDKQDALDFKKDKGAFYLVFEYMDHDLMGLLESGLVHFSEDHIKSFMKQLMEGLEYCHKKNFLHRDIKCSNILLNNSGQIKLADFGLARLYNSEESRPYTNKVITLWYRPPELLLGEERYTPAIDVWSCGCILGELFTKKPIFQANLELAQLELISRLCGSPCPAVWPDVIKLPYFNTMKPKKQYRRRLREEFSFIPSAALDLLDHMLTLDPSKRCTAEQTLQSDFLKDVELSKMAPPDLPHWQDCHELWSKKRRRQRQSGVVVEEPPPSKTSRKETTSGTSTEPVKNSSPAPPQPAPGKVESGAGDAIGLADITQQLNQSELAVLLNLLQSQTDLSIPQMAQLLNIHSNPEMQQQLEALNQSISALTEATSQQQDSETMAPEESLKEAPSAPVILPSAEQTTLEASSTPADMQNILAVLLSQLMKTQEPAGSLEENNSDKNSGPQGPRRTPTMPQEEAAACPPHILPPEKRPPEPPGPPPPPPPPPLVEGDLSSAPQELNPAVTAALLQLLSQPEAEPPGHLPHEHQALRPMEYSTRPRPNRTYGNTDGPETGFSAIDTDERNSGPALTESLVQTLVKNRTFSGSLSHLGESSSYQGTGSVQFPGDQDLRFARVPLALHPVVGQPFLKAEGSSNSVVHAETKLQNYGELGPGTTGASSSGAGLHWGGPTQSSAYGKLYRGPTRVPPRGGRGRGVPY", "experiment": "CYCLIN K nuclear protein level: immunofluorescence high content analysis (CAL-120)", "assay_type": "cell-based", "conditions": "24 h, 50% reduction of nuclear CCNK staining intensity, median, read-out: CYCLIN K degradation IF, DC50-[mol/l] (median)", "experimental": "8. CYCLIN K nuclear protein level: immunofluorescence High Content Analysis\nCAL-120 human breast cancer cells (DSMZ ACC 459) are seeded in 1536-well microtiter plates (800 cells per well) containing 50 nanoL of compounds in Dose-Response. Control wells received DMSO or Example 4. Plates are then incubated for 24 h at 37° C. in an humidified incubator and fixed with 4% PFA for 10 min. Then immunofluorescence (IF) against CYCLIN K (ThermoFisher Scientific CONK Antibody #PA5-85020, rabbit, 1:200 dilution) is performed using standard IF protocols. Cells are then stained with Hoechst 33342 (Life Technologies, H-1399, 0.1 microg/ml) and imaged on an automated confocal microscopy system (e.g. Perkin Elmer Opera Phenix). Nuclear and cytoplasmic intensity as well as the nuclear/cytoplasmic intensity ratio is determined by automated image analysis using custom generated scripts (MetaXpress). Data is then transferred to Genedata Screener software, normalized to DMSO and control and DC50 values (degrading concentration to achieve 50% reduction of nuclear CCNK staining intensity relative to controls) are reported."}}}
{"compound": "Fc1ccc(-c2nnc(CNc3nc(N4CCOCC4)nc4c(Br)cnn34)[nH]2)cc1F", "note": "[Example 99, 8-bromo-N-{[5-(3,4-difluorophenyl)-4H-1,2,4-triazol-3-yl]methyl}-2-(morpholin-4-yl)pyrazolo[1,5-a][1,3,5]triazin-4-amine]", "values": [{"measurement": "IC50", "setting": "[1]", "value": 11.2, "unit": "nM"}, {"measurement": "DC50", "setting": "[2]", "value": 3.05, "unit": "nM"}]}
{"compound": "Brc1cnn2c(NCc3nnc(-c4ccccc4)[nH]3)nc(N3CCNCC3)nc12.O=CO", "note": "[Example 119, 8-bromo-N-[(5-phenyl-4H-1,2,4-triazol-3-yl)methyl]-2-piperazin-1-yl-pyrazolo[1,5-a][1,3,5]triazin-4-amine formate]", "values": [{"measurement": "IC50", "setting": "[1]", "value": 21.3, "unit": "nM"}, {"measurement": "DC50", "setting": "[2]", "value": 3, "unit": "nM"}]}
{"compound": "Brc1cnn2c(NCc3nnc(-c4ccccc4)[nH]3)nc(N3C[C@@H]4C[C@H]3CO4)nc12", "note": "[Example 120, 8-bromo-2-[(1S,4S)-2-oxa-5-azabicyclo[2.2.1]heptan-5-yl]-N-[(5-phenyl-4H-1,2,4-triazol-3-yl)methyl]pyrazolo[1,5-a][1,3,5]triazin-4-amine]", "values": [{"measurement": "IC50", "setting": "[1]", "value": 30, "unit": "nM"}, {"measurement": "DC50", "setting": "[2]", "value": 2.19, "unit": "nM"}]}
{"compound": "c1cncc(-c2cnn3c(NCc4nc5ccccc5[nH]4)nc(N4CCOCC4)nc23)c1", "note": "[Example 108, N-[(1H-benzimidazol-2-yl)methyl]-2-(morpholin-4-yl)-8-(pyridin-3-yl)pyrazolo[1,5-a][1,3,5]triazin-4-amine]", "values": [{"measurement": "IC50", "setting": "[1]", "value": 87.4, "unit": "nM"}, {"measurement": "DC50", "setting": "[2]", "value": 2.91, "unit": "nM"}]}
{"compound": "Brc1cnn2c(NCc3nc4ccccc4[nH]3)nc(N3C[C@@H]4C[C@H]3CO4)nc12", "note": "[Example 103, N-[(1H-benzimidazol-2-yl)methyl]-8-bromo-2-[(1S,4S)-2-oxa-5-azabicyclo[2.2.1]heptan-5-yl]pyrazolo[1,5-a][1,3,5]triazin-4-amine]", "values": [{"measurement": "IC50", "setting": "[1]", "value": 71.9, "unit": "nM"}, {"measurement": "DC50", "setting": "[2]", "value": 0.765, "unit": "nM"}]}
{"compound": "Cc1ccc(-c2nnc(CNc3nc(N4CCOCC4)nc4c(Br)cnn34)[nH]2)cc1F", "note": "[Example 98, 8-bromo-N-{[5-(3-fluoro-4-methylphenyl)-4H-1,2,4-triazol-3-yl]methyl}-2-(morpholin-4-yl)pyrazolo[1,5-a][1,3,5]triazin-4-amine]", "values": [{"measurement": "IC50", "setting": "[1]", "value": 78.8, "unit": "nM"}, {"measurement": "DC50", "setting": "[2]", "value": 28.1, "unit": "nM"}]}
{"compound": "CC1(C)CN(c2nc(NCc3nc4ccccc4[nH]3)n3ncc(C4CC4)c3n2)CCO1", "note": "[Example 123, N-[(1H-benzimidazol-2-yl)methyl]-8-cyclopropyl-2-(2,2-dimethylmorpholin-4-yl)pyrazolo[1,5-a][1,3,5]triazin-4-amine]", "values": [{"measurement": "IC50", "setting": "[1]", "value": 71.2, "unit": "nM"}, {"measurement": "DC50", "setting": "[2]", "value": 5.03, "unit": "nM"}]}
{"compound": "Fc1ccc(-c2cnn3c(NCc4nc5ccccc5[nH]4)nc(N4CCOCC4)nc23)cc1", "note": "[Example 106, N-[(1H-benzimidazol-2-yl)methyl]-8-(4-fluorophenyl)-2-(morpholin-4-yl)pyrazolo[1,5-a][1,3,5]triazin-4-amine]", "values": [{"measurement": "IC50", "setting": "[1]", "value": 32.2, "unit": "nM"}, {"measurement": "DC50", "setting": "[2]", "value": 2.45, "unit": "nM"}]}
{"compound": "Fc1cccc2[nH]c(CNc3nc(N4CCOCC4)nc4c(Br)cnn34)nc12", "note": "[Example 97, 8-bromo-N-[(4-fluoro-1H-benzimidazol-2-yl)methyl]-2-(morpholin-4-yl)pyrazolo[1,5-a][1,3,5]triazin-4-amine]", "values": [{"measurement": "IC50", "setting": "[1]", "value": 1.68, "unit": "nM"}, {"measurement": "DC50", "setting": "[2]", "value": 0.467, "unit": "nM"}]}
{"compound": "C[C@@H]1CN(c2nc(NCc3nnc(-c4ccccc4)[nH]3)n3ncc(Br)c3n2)C[C@H](C)N1C", "note": "[Example 125, 8-bromo-N-[(5-phenyl-4H-1,2,4-triazol-3-yl)methyl]-2-[(3R,5S)-3,4,5-trimethylpiperazin-1-yl]pyrazolo[1,5-a][1,3,5]triazin-4-amine]", "values": [{"measurement": "IC50", "setting": "[1]", "value": 61.1, "unit": "nM"}, {"measurement": "DC50", "setting": "[2]", "value": 1.2, "unit": "nM"}]}
{"compound": "C[C@@H]1CN(c2nc(NCc3nc4c(F)cccc4[nH]3)n3ncc(Br)c3n2)C[C@H](C)O1", "note": "[Example 109, 8-bromo-2-[(2R,6S)-2,6-dimethylmorpholin-4-yl]-N-[(4-fluoro-1H-benzimidazol-2-yl)methyl]pyrazolo[1,5-a][1,3,5]triazin-4-amine]", "values": [{"measurement": "IC50", "setting": "[1]", "value": 1.34, "unit": "nM"}, {"measurement": "DC50", "setting": "[2]", "value": 0.115, "unit": "nM"}]}
{"compound": "Brc1cnn2c(NCc3nc4ccccc4[nH]3)nc(N3CCN4CCC[C@H]4C3)nc12", "note": "[Example 148, N-[(1H-benzimidazol-2-yl)methyl]-8-bromo-2-[(8aS)-hexahydropyrrolo[1,2-a]pyrazin-2 (1 H)-yl]pyrazolo[1,5-a][1,3,5]triazin-4-amine]", "values": [{"measurement": "IC50", "setting": "[1]", "value": 87.6, "unit": "nM"}, {"measurement": "DC50", "setting": "[2]", "value": 8.06, "unit": "nM"}]}
{"compound": "CC(C)c1cnn2c(NCc3nc4ccccc4[nH]3)nc(N3CCCOCC3)nc12", "note": "[Example 8, N-[(1H-benzimidazol-2-yl)methyl]-2-(1,4-oxazepan-4-yl)-8-(propan-2-yl)pyrazolo[1,5-a][1,3,5]triazin-4-amine]", "values": [{"measurement": "IC50", "setting": "[1]", "value": 93.7, "unit": "nM"}, {"measurement": "DC50", "setting": "[2]", "value": 26.9, "unit": "nM"}]}
{"compound": "Fc1cc(F)cc(-c2nnc(CNc3nc(N4CCOCC4)nc4c(Br)cnn34)[nH]2)c1", "note": "[Example 105, 8-bromo-N-{[5-(3,5-difluorophenyl)-4H-1,2,4-triazol-3-yl]methyl}-2-(morpholin-4-yl)pyrazolo[1,5-a][1,3,5]triazin-4-amine]", "values": [{"measurement": "IC50", "setting": "[1]", "value": 8.43, "unit": "nM"}, {"measurement": "DC50", "setting": "[2]", "value": 0.676, "unit": "nM"}]}
{"compound": "Clc1ccccc1-c1cnc(CNc2nc(N3CCOCC3)nc3c(Br)cnn23)[nH]1", "note": "[Example 96, 8-bromo-N-{[5-(2-chlorophenyl)-1H-imidazol-2-yl]methyl}-2-(morpholin-4-yl)pyrazolo[1,5-a][1,3,5]triazin-4-amine]", "values": [{"measurement": "IC50", "setting": "[1]", "value": 29.4, "unit": "nM"}, {"measurement": "DC50", "setting": "[2]", "value": 10.7, "unit": "nM"}]}
{"compound": "CCC1COCCN1c1nc(NCc2nc3ccccc3[nH]2)n2ncc(Br)c2n1", "note": "(stereo not shown) [Example 116, N-(1H-benzimidazol-2-ylmethyl)-8-bromo-2-(3-ethylmorpholin-4-yl)pyrazolo[1,5-a][1,3,5]triazin-4-amine]", "values": [{"measurement": "IC50", "setting": "[1]", "value": 123, "unit": "nM"}, {"measurement": "DC50", "setting": "[2]", "value": 4.92, "unit": "nM"}]}
{"compound": "Fc1ccc2[nH]c(CNc3nc(N4CCOCC4)nc4c(Br)cnn34)nc2c1", "note": "[Example 101, 8-bromo-N-[(5-fluoro-1H-benzimidazol-2-yl)methyl]-2-(morpholin-4-yl)pyrazolo[1,5-a][1,3,5]triazin-4-amine]", "values": [{"measurement": "IC50", "setting": "[1]", "value": 3.14, "unit": "nM"}, {"measurement": "DC50", "setting": "[2]", "value": 0.892, "unit": "nM"}]}
{"compound": "Brc1cnn2c(NCc3nc4ccccc4[nH]3)nc(N3CCOCC3C3CC3)nc12", "note": "(stereo not shown) [Example 117, N-(1H-benzimidazol-2-ylmethyl)-8-bromo-2-(3-cyclopropylmorpholin-4-yl)pyrazolo[1,5-a][1,3,5]triazin-4-amine]", "values": [{"measurement": "IC50", "setting": "[1]", "value": 121, "unit": "nM"}, {"measurement": "DC50", "setting": "[2]", "value": 2.62, "unit": "nM"}]}
{"compound": "C[C@H]1CN(c2nc(NCc3nnc(-c4ccccc4)[nH]3)n3ncc(Br)c3n2)CCN1C.O=CO", "note": "[Example 122, 8-bromo-2-[(3S)-3,4-dimethylpiperazin-1-yl]-N-[(5-phenyl-4H-1,2,4-triazol-3-yl)methyl]pyrazolo[1,5-a][1,3,5]triazin-4-amine formate]", "values": [{"measurement": "IC50", "setting": "[1]", "value": 24.6, "unit": "nM"}, {"measurement": "DC50", "setting": "[2]", "value": 0.735, "unit": "nM"}]}
{"compound": "c1ccc2[nH]c(CNc3nc(N4CCOCC4)nc4c(-c5ccncc5)cnn34)nc2c1", "note": "[Example 111, N-[(1H-benzimidazol-2-yl)methyl]-2-(morpholin-4-yl)-8-(pyridin-4-yl)pyrazolo[1,5-a][1,3,5]triazin-4-amine hydrogen chloride (1/1)]", "values": [{"measurement": "IC50", "setting": "[1]", "value": 15.3, "unit": "nM"}, {"measurement": "DC50", "setting": "[2]", "value": 1, "unit": "nM"}]}
